Each structure is given as a SMILES string. pEC50: −log10 of the molar value. Where two headings read alike, the source gives them in different places.

Assay [1] has as its system HBV. The assay is described as follows: HBV infection in HepG2-NTCP cells (HBeAg AlphaLISA in supernatants). The assay is classed as cell-based. The conditions noted are these: Hepatitis B virus, 192 h; for pEC50: HBV infection of HepG2-NTCP cells, HBeAg in supernatants at day 8 post infection, read-out: Cellular EC50. In a few lines: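 HepG2-NTCP A3 cells were pre-incubated 2 h with 3-fold serially diluted compounds, then infected with HBV at 2000 GE/cell with 4% PEG (0.5% DMSO final). After washing on day 1, cells stayed in 2.5% DMSO medium; supernatant HBeAg measured by AlphaLISA on day 8, EC50 versus DMSO controls.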
In general terms: Bead proximity is the source of the signal in Alpha formats.

For assay [2], the target named is T1, NTCP (Homo sapiens, UniProt Q14973).
T1 construct: expressed in transfected cells; host or cells: HepG2-NTCP (clone A3, kept under puromycin)
T1 sequence (Q14973 1-349): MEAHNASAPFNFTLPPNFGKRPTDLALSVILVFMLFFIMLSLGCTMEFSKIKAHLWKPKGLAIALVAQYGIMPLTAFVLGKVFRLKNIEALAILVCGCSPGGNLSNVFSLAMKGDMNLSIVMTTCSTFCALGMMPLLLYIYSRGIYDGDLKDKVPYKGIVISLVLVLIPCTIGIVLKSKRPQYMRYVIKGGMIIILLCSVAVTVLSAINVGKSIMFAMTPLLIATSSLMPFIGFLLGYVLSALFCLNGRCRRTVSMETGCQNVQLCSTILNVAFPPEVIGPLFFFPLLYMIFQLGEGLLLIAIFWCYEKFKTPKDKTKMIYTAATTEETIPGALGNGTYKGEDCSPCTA
The assay can be described thus: HepG2-NTCP preS1 binding competition assay (FITC-labeled myristoylated preS1 peptide). The settings on record: HepG2-NTCP cells; competition with FITC-labeled preS1 peptide. The protocol: HepG2-NTCP preS1 Binding Competition Assay
Myristoylated preS1 peptide (2-48 aa) conjugated to a C-terminal FITC tag was synthesized to evaluate preS1 binding to NTCP-expressing cells. HepG2-NTCP cells seeded in 384-wells were pre-treated with compounds for 2 hours prior to the addition of FITC-labeled preS1 peptide. After co-incubation for 30 minutes, unbound FITC-preS1 peptide was washed twice with PBS, and the fluorescence of preS1-FITC bound to cell surface was detected by Envision plate reader. EC50 ranges are as follows: A<0.1 μM; B 0.1-1 μM; C>1 μM.

For `CN1[C@H](C2CCCCC2)CN(CC2COC2)c2cc(Cl)c(-c3ccc(F)c(C(=O)O)c3)cc2S1(=O)=O` [Example 320], the EC50 in assay [1] (read-out: Cellular EC50 (μM)) was over 1 µM. Moreover, the pEC50 in assay [2] is under 6.00.
For the compound `CCCCCCS(=O)(=O)Nc1ccc(-c2cc3c(cc2Cl)N(c2ccccc2)C[C@@H](C2CCCCC2)N(C)S3(=O)=O)cc1C(=O)O` [Example 273], the pEC50 in assay [1] and in assay [2] was over 7.00 in each case.
As for `CN1[C@H](C2CCCCC2)CN(c2ccccc2)c2cc(Cl)c(N3CC[C@@H](C(=O)O)C3)cc2S1(=O)=O` [Example 610], the pEC50 in assay [2] is 6.00 to 7.00.
Consider `CC(=O)NS(=O)(=O)c1ccc(-c2cc3c(cc2Cl)N(c2ccccc2)C[C@@H](C2CCCCC2)N(C)S3(=O)=O)s1` [Example 225], for which the pEC50 in assay [1] and in assay [2] was 6.00 to 7.00 in each case.
For `CC(C)COC(=O)Nc1cc(-c2cc3c(cc2Cl)N(c2ccccc2)C[C@@H](C2CCCCC2)N(C)S3(=O)=O)sc1C(=O)O` [Example 241], the pEC50 in assay [1] and in assay [2] was over 7.00 each time.
As to `CN1[C@H](C2CCCCC2)CN(c2ccccc2)c2cc(Cl)c(-c3ccc(N)c(C(=O)O)c3)cc2S1(=O)=O` [Example 157, (R)-2-amino-5-(7-chloro-3-cyclohexyl-2-methyl-1,1-dioxido-5-phenyl-2,3,4,5-tetrahydrobenzo[f][1,2,5]thiadiazepin-8-yl)benzoic acid], the pEC50 in assay [1] and in assay [2] was 6.00 to 7.00 throughout.
Consider `CN1[C@H](C2CCCCC2)CN(c2ccccc2)c2cc(Cl)c([C@H]3C[C@H](C(=O)O)C3)cc2S1(=O)=O` [Example 608, (1R,3r)-3-((R)-7-chloro-3-cyclohexyl-2-methyl-1,1-dioxido-5-phenyl-2,3,4,5-tetrahydrobenzo[f][1,2,5]thiadiazepin-8-yl)cyclobutane-1-carboxylic acid], for which the pEC50 in assay [1] and in assay [2] was 6.00 to 7.00 throughout.
As for `CCCS(=O)(=O)Nc1ccc(-c2cc3c(cc2Cl)N(c2ccccc2)C[C@@H](C2CCCCC2)N(C)S3(=O)=O)cc1C(=O)O` [Example 274], the pEC50 in assay [1] and in assay [2] was over 7.00 in each case.
`COC1CC(OC(=O)Nc2cc(-c3cc4c(cc3Cl)N(c3ccccc3)C[C@@H](C3CCCCC3)N(C)S4(=O)=O)sc2C(=O)O)C1` (stereo partly shown) [Example 264] gave a pEC50 in assay [2] of over 7.00.
On the same count and under the same terms, the figure for `CN1[C@H](C2CCCCC2)CN(c2ccccc2)c2cc(Cl)c(-c3ccc(S(=O)(=O)NC(=O)c4ccccc4)s3)cc2S1(=O)=O` [Example 226] is 6.00 to 7.00.
As to `CN1[C@H](C2CCCCC2)CN(c2nccs2)c2cc(Cl)c(-c3ccc(F)c(C(=O)O)c3)cc2S1(=O)=O` [Example 317], the pEC50 in assay [1] and in assay [2] was 6.00 to 7.00 in each case.
On to `CN1[C@H](C2CCCCC2)CN(c2csc(Cl)c2)c2cc(Cl)c(-c3ccc(F)c(C(=O)O)c3)cc2S1(=O)=O` [Example 316, (R)-5-(7-chloro-5-(5-chlorothiophen-3-yl)-3-cyclohexyl-2-methyl-1,1-dioxido-2,3,4,5-tetrahydrobenzo[f][1,2,5]thiadiazepin-8-yl)-2-fluorobenzoic acid], for which the pEC50 in assay [1] and in assay [2] was over 7.00 throughout.
For the compound `CN1[C@H](C2CCCCC2)CN(c2ccccc2)c2cc(Cl)c(N3C[C@@H](C(=O)O)[C@H](c4ccccc4)C3)cc2S1(=O)=O` [Example 613], the pEC50 in assay [1] was over 7.00; in assay [2], 6.00 to 7.00.
The compound `CN(C)C(=O)c1ccc(N2C[C@@H](C3CCCCC3)N(C)S(=O)(=O)c3cc(-c4ccc(F)c(C(=O)O)c4)c(Cl)cc32)cc1` [Example 315] had a pEC50 in assay [2] of under 6.00.
Consider `CN1[C@H](C2CCCCC2)CN(c2ccccc2)c2cc(Cl)c(-c3cc(NC(=O)OCC(F)F)c(C(=O)O)s3)cc2S1(=O)=O` [Example 242], for which the pEC50 in assay [1] and in assay [2] was over 7.00 in each case.
With `CCCS(=O)(=O)Nc1cc(-c2cc3c(cc2Cl)N(c2ccccc2)C[C@@H](C2CCCCC2)N(C)S3(=O)=O)sc1C(=O)O` [Example 275, (R)-5-(7-chloro-3-cyclohexyl-2-methyl-1,1-dioxido-5-phenyl-2,3,4,5-tetrahydrobenzo[f][1,2,5]thiadiazepin-8-yl)-3-(propylsulfonamido)thiophene-2-carboxylic acid], the pEC50 in assay [1] and in assay [2] was over 7.00 throughout.
In assay [2], `CN1[C@H](C2CCCCC2)CN(c2ccccc2)c2cc(OC3COC3)c(-c3ccc(F)c(C(=O)O)c3)cc2S1(=O)=O` [Example 370] showed a pEC50 of 6.00 to 7.00.
In assay [2], `CN1[C@H](C2CCCCC2)CN(c2ccccc2)c2cc(Cl)c(N3CC[C@H](C(=O)O)C3)cc2S1(=O)=O` [Example 611] had a pEC50 of 6.00 to 7.00.
Turning to `CC(C)C(=O)NS(=O)(=O)c1ccc(-c2cc3c(cc2Cl)N(c2ccccc2)C[C@@H](C2CCCCC2)N(C)S3(=O)=O)s1` [Example 227], in assay [2], the pEC50 was 6.00 to 7.00.
Still for that read-out and setting: the figure for `COCCCOC(=O)Nc1cc(-c2cc3c(cc2Cl)N(c2ccccc2)C[C@@H](C2CCCCC2)N(C)S3(=O)=O)sc1C(=O)O` [Example 263] is over 7.00; for `CN1[C@H](C2CCCCC2)CN(c2ccccc2)c2cc(Cl)c(-c3cc(Cl)c(N)c(C(=O)O)c3)cc2S1(=O)=O` [Example 192] it is 6.00 to 7.00; for `CN1[C@H](C2CCCCC2)CN(c2ccccc2)c2cc(Cl)c(-c3ccc(S(N)(=O)=O)s3)cc2S1(=O)=O` [Example 201] it is under 6.00.
Still for that read-out and setting: the figure for `CN1[C@H](C2CCCCC2)CN(c2ccccc2)c2cc(Cl)c(-c3cc(NC(=O)OCCOC(C)(C)C)c(C(=O)O)s3)cc2S1(=O)=O` [Example 262] is over 7.00; for `CN1[C@H](C2CCCCC2)CN(c2ccccc2)c2cc(O[C@H]3C[C@H](O)C3)c(-c3cc(F)c(C(=O)O)s3)cc2S1(=O)=O` [Example 503] it is 6.00 to 7.00.
Regarding `CN1[C@H](C2CCCCO2)CN(c2ccccc2)c2cc(Cl)c(-c3ccc(F)c(C(=O)O)c3)cc2S1(=O)=O` (stereo partly drawn) [Example 104, 5-((3S)-7-chloro-2-methyl-1,1-dioxido-5-phenyl-3-(tetrahydro-2H-pyran-2-yl)-2,3,4,5-tetrahydrobenzo[f][1,2,5]thiadiazepin-8-yl)-2-fluorobenzoic acid], the pEC50 in assay [1] was 6.00 to 7.00.
Same read-out and setting: the figure for `CN1[C@H](CO)CN(c2ccccc2)c2cc(Cl)c(-c3ccc(F)c(C(=O)O)c3)cc2S1(=O)=O` [Example 98, (S)-5-(7-chloro-3-(hydroxymethyl)-2-methyl-1,1-dioxido-5-phenyl-2,3,4,5-tetrahydrobenzo[f][1,2,5]thiadiazepin-8-yl)-2-fluorobenzoic acid] is under 6.00; for `CCCCCCCOc1cc2c(cc1-c1cc(F)c(C(=O)O)s1)S(=O)(=O)N(C)[C@H](C1CCCCC1)CN2c1ccccc1` [Example 485] it is over 7.00.
The same measure, in the same setting: the figure for `CN1C(C23CC(C2)C3)CN(c2ccccc2)c2cc(Cl)c(-c3ccc(F)c(C(=O)O)c3)cc2S1(=O)=O` (stereo not shown) [Example 86] is 6.00 to 7.00; for `CN1[C@H](C2CCC2)CN(c2ccccc2)c2cc(OC(C)(C)C)c(-c3ccc(F)c(C(=O)O)c3)cc2S1(=O)=O` [Example 465] it is 6.00 to 7.00; for `CN1[C@H](C2CCCCC2)CN(c2ccccc2)c2cc(C3CCNCC3)c(-c3ccc(F)c(C(=O)O)c3)cc2S1(=O)=O` [Example 596] it is under 6.00.
On the same count and under the same terms, the figure for `CN1[C@H](C2CCCCC2)CN(c2ccccc2)c2cc(Cl)c(-c3cc(NC(=O)OC4CCCC4)c(C(=O)O)s3)cc2S1(=O)=O` [Example 251] is over 7.00.

Broadly, the EC50 is the concentration needed to bring the measured effect to its halfway point. As a reminder, the pEC50 is −log10 of the EC50, conventionally taken in molar units.
